The numbers were not newly measured in patent US20130338198A1, “COMPOSITION FOR TREATING DERMATITIS AND ICHTHYOSIS, AND METHOD FOR TREATING DERMATITIS AND ICHTHYOSIS” (Skinvisible Pharmaceuticals, Inc., priority 2010, published 2013), which cites them from elsewhere.

The conditions of this data set: in vivo.

With “Poly(vinylpyrrolidone/1-eicosene) [PVPE]”, the dermal toxicity entry was “no demonstrable dermal toxicity”.

As to “Poly(vinylpyrrolidone/1-hexadecene) [PVPH]”, the dermal toxicity entry was “no demonstrable dermal toxicity”.
